In paper PMC3561458 (Investigational new drugs, 2011):
Marks after values point to notes of the source that are not given here.

Experiments:
[1] = system: patients with advanced/metastatic solid tumors; test: Phase I safety: adverse events; type: in vivo, human; conditions: for dose-limiting toxicities (DLTs): all doses
[2] = system: CDK4; conditions: cited from earlier work
[3] = system: CDK2; conditions: cited from earlier work

CNC(=O)c1nn(C)c2c1C(C)(C)Cc1cnc(Nc3ccc(N4CCN(C)CC4)cc3)nc1-2 [PHA-848125AC, N,1,4,4-tetramethyl-8-{[4-(4-methylpiperazin-1-yl)phenyl]amino}-4,5-dihydro-1H-pyrazolo [4,3-h]quinazoline-3-carboxamide]
Diarrhea, drug-related, CTC Grade 1–4: patients ([1]; S1 100 mg/day N=6, all cycles): 1
Fatigue, drug-related, CTC Grade 1–4: patients ([1]; S1 100 mg/day N=6, all cycles): 2
Fatigue, drug-related, CTC Grade 3–4: patients ([1]; S1 100 mg/day N=6, all cycles): 1
Nausea, drug-related, CTC Grade 1–4: patients ([1]; S1 100 mg/day N=6, all cycles): 3
Tremor, drug-related, CTC Grade 1–4: patients ([1]; S1 100 mg/day N=6, all cycles): 2
Vomiting, drug-related, CTC Grade 1–4: patients ([1]; S1 100 mg/day N=6, all cycles): 3
DLT events ([1]; S1 200 mg/day): Grade 3 ataxia and Grade 2–3 tremors
Any drug-related adverse event, CTC Grade 1–4: patients ([1]; S1 200 mg/day N=6, all cycles): 6
Any drug-related adverse event, CTC Grade 3–4: patients ([1]; S1 200 mg/day N=6, all cycles): 5
Ataxia, drug-related, CTC Grade 1–4: patients ([1]; S1 200 mg/day N=6, all cycles): 3
Ataxia, drug-related, CTC Grade 3–4: patients ([1]; S1 200 mg/day N=6, all cycles): 3
Diarrhea, drug-related, CTC Grade 1–4: patients ([1]; S1 200 mg/day N=6, all cycles): 5
Diarrhea, drug-related, CTC Grade 3–4: patients ([1]; S1 200 mg/day N=6, all cycles): 1
Dizziness, drug-related, CTC Grade 1–4: patients ([1]; S1 200 mg/day N=6, all cycles): 1
Fatigue, drug-related, CTC Grade 1–4: patients ([1]; S1 200 mg/day N=6, all cycles): 2
Increased ALT, drug-related, CTC Grade 1–4: patients ([1]; S1 200 mg/day N=6, all cycles): 1
Increased ALT, drug-related, CTC Grade 3–4: patients ([1]; S1 200 mg/day N=6, all cycles): 1
Nausea, drug-related, CTC Grade 1–4: patients ([1]; S1 200 mg/day N=6, all cycles): 4
Neutropenia, drug-related, CTC Grade 1–4: patients ([1]; S1 200 mg/day N=6, all cycles): 1
Neutropenia, drug-related, CTC Grade 3–4: patients ([1]; S1 200 mg/day N=6, all cycles): 1
Syncope, drug-related, CTC Grade 1–4: patients ([1]; S1 200 mg/day N=6, all cycles): 1
Syncope, drug-related, CTC Grade 3–4: patients ([1]; S1 200 mg/day N=6, all cycles): 1
Tremor, drug-related, CTC Grade 1–4: patients ([1]; S1 200 mg/day N=6, all cycles): 4
Tremor, drug-related, CTC Grade 3–4: patients ([1]; S1 200 mg/day N=6, all cycles): 2
Vomiting, drug-related, CTC Grade 1–4: patients ([1]; S1 200 mg/day N=6, all cycles): 4
Any drug-related adverse event, CTC Grade 1–4: patients ([1]; S1 300 mg/day N=1, all cycles): 1
Any drug-related adverse event, CTC Grade 3–4: patients ([1]; S1 300 mg/day N=1, all cycles): 1
Ataxia, drug-related, CTC Grade 1–4: patients ([1]; S1 300 mg/day N=1, all cycles): 1
Ataxia, drug-related, CTC Grade 3–4: patients ([1]; S1 300 mg/day N=1, all cycles): 1
Dehydration, drug-related, CTC Grade 1–4: patients ([1]; S1 300 mg/day N=1, all cycles): 1
Diarrhea, drug-related, CTC Grade 1–4: patients ([1]; S1 300 mg/day N=1, all cycles): 1
Dizziness, drug-related, CTC Grade 1–4: patients ([1]; S1 300 mg/day N=1, all cycles): 1
Fatigue, drug-related, CTC Grade 1–4: patients ([1]; S1 300 mg/day N=1, all cycles): 1
Nausea, drug-related, CTC Grade 1–4: patients ([1]; S1 300 mg/day N=1, all cycles): 1
Tremor, drug-related, CTC Grade 1–4: patients ([1]; S1 300 mg/day N=1, all cycles): 1
Vomiting, drug-related, CTC Grade 1–4: patients ([1]; S1 300 mg/day N=1, all cycles): 1
dose-limiting toxicities (DLTs) ([1]; S1 (7 days on/7 days off q2wks)): ataxia (Grade 2–4) and tremors (Grade 2–3)
patients with drug-related eye disorders ([1]; S1, single patient, Grade 1 increased lacrimation): 4.5%
patients discontinued due to adverse events ([1]; S1 N=22): 13.6%
ataxia ([1]; S2): not observed
fundoscopy and ERG abnormalities during treatment ([1]; S2): neither clinically relevant abnormality at fundoscopy nor ERG abnormalities
Anemia, drug-related, CTC Grade 1–4: patients ([1]; S2 150 mg/day N=5, all cycles): 2
Any drug-related adverse event, CTC Grade 1–4: patients ([1]; S2 150 mg/day N=5, all cycles): 5
Any drug-related adverse event, CTC Grade 3–4: patients ([1]; S2 150 mg/day N=5, all cycles): 4
Diarrhea, drug-related, CTC Grade 1–4: patients ([1]; S2 150 mg/day N=5, all cycles): 3
Hypokalemia, drug-related, CTC Grade 1–4: patients ([1]; S2 150 mg/day N=5, all cycles): 1
Hypokalemia, drug-related, CTC Grade 3–4: patients ([1]; S2 150 mg/day N=5, all cycles): 1
Increased ALT, drug-related, CTC Grade 1–4: patients ([1]; S2 150 mg/day N=5, all cycles): 1
Increased ALT, drug-related, CTC Grade 3–4: patients ([1]; S2 150 mg/day N=5, all cycles): 1
Increased Lipase, drug-related, CTC Grade 1–4: patients ([1]; S2 150 mg/day N=5, all cycles): 1
Increased Lipase, drug-related, CTC Grade 3–4: patients ([1]; S2 150 mg/day N=5, all cycles): 1
Nausea, drug-related, CTC Grade 1–4: patients ([1]; S2 150 mg/day N=5, all cycles): 3
Neutropenia, drug-related, CTC Grade 1–4: patients ([1]; S2 150 mg/day N=5, all cycles): 1
Tremor, drug-related, CTC Grade 1–4: patients ([1]; S2 150 mg/day N=5, all cycles): 3
Vomiting, drug-related, CTC Grade 1–4: patients ([1]; S2 150 mg/day N=5, all cycles): 2
Vomiting, drug-related, CTC Grade 3–4: patients ([1]; S2 150 mg/day N=5, all cycles): 1
Anemia, drug-related, CTC Grade 1–4: patients ([1]; S2 200 mg/day N=4, all cycles): 2
Any drug-related adverse event, CTC Grade 1–4: patients ([1]; S2 200 mg/day N=4, all cycles): 4
Any drug-related adverse event, CTC Grade 3–4: patients ([1]; S2 200 mg/day N=4, all cycles): 2
Dehydration, drug-related, CTC Grade 1–4: patients ([1]; S2 200 mg/day N=4, all cycles): 1
Diarrhea, drug-related, CTC Grade 1–4: patients ([1]; S2 200 mg/day N=4, all cycles): 3
Diarrhea, drug-related, CTC Grade 3–4: patients ([1]; S2 200 mg/day N=4, all cycles): 1
Dizziness, drug-related, CTC Grade 1–4: patients ([1]; S2 200 mg/day N=4, all cycles): 2
Fatigue, drug-related, CTC Grade 1–4: patients ([1]; S2 200 mg/day N=4, all cycles): 3
Nausea, drug-related, CTC Grade 1–4: patients ([1]; S2 200 mg/day N=4, all cycles): 1
Neutropenia, drug-related, CTC Grade 1–4: patients ([1]; S2 200 mg/day N=4, all cycles): 1
Tremor, drug-related, CTC Grade 1–4: patients ([1]; S2 200 mg/day N=4, all cycles): 2
Tremor, drug-related, CTC Grade 3–4: patients ([1]; S2 200 mg/day N=4, all cycles): 1
Vomiting, drug-related, CTC Grade 1–4: patients ([1]; S2 200 mg/day N=4, all cycles): 1
dose-limiting toxicities (DLTs) ([1]; S2 (4 days on/3 days off × 3wks q4wks)): tremors (Grade 2–3), elevated lipase (Grade 3), increased creatinine (Grade 2), and nausea and vomiting (Grade 3)
patients discontinued due to adverse events ([1]; S2 N=15): 13.3 ^a %
blood chemistry and hematology abnormalities ([1]; any schedule, except lymphocytopenia): No significant blood chemistry and hematology abnormalities
doses at which tremors and ataxia were dose-limiting ([1]; both schedules): > 150 mg/day
lymphocytopenia occurrence ([1]; both schedules): half of cases
on study deaths ([1]; both schedules): No on study deaths
effects on coagulation, blood pressure, ECGs ([1]; in vivo): did not cause significant effects
recommended phase II dose (RP2D) ([1]; oral, both schedules (S1 and S2)): 150 mg/day
inhibitory activity towards CDK4 [2]: inhibitory activity
inhibitory activity towards CDK2 [3]: inhibitory activity
